Common to all, as to format: cell-based, human
Experiment [1] has as its system hESC. Description: Xeno-free, feeder-free hESC culture (minimal medium development). To be noted: for maintenance of hESCs, Wnt ligand replaced by GSK-3 inhibitor: ID-8 containing medium. The protocol:
(§1) For xeno-free, feeder-free culture, the cells were passaged into 2 μg/cm^2 human Fibronectin (Sigma), 10-20 μg/cm^2 human Laminin (Sigma) and 10 μg/cm^2 human Vitronectin (Invitrogen)-coated culture dishes and cultured in DMEM/F-12 supplement with L-glutamine, a non-essential amino acid, ITS, 20-25 ng/ml Wnt3a and 500 nM ID-8, and with or without 4 ng/ml FGF2. The culture medium was changed daily. Some of colonies became detached from the edge region 5 to 7 days after culturing, and then cells were treated with 0.5 mg/ml GRGDTP peptides (AnaSpec) or 1 μg/ml Echistatin (Sigma) and incubated at 37° C. for 15-45 minutes until almost all of the colony starts to detach from the edge region. The colonies were detached and partially dissociated into clumps by gentle pipetting, and then the clumps were washed with culture medium, collected by centrifugation and seeded on new dishes as 1 to 2 split ratio.
The development of a xeno-free, feeder-free hESC culture system using ID-8 and Wnt activation was investigated. After extensive investigation, the inventors determined that the minimal media required to maintain hESC proliferation and pluripotency consisted of DMEM/F-12 with bFGF (4 ng/ml), Wnt3a (25 ng/ml), ID-8 (0.5 μM) and Insulin-Transferrin-Selenium (ITS). […] The inventors next sought to replace the Wnt ligand with several small molecule GSK-3 inhibitors, BIO (11), CHIR99021 (22) and Kenpaullone (23) in ID-8 containing medium with or without bFGF. […] However, in contrast to Wnt ligand containing medium, hESCs became unstable after few passages, subsequently stabilized and maintained pluripotent cores were surrounded with spontaneously differentiated cells (FIG. 5). Under these conditions, manually selection of undifferentiated hESC colonies from the surrounding cells was required at every passage to maintain pluripotent cultures.
(§2) Initially, cells were maintained on Matrigel, a complex animal derived ECM. However, it would be advantageous to use a defined xeno-component-free ECM. […] Because of the extremely low level of protein in these cultures (i.e. no albumin and matrigel), the hESCs are extremely sensitive to damage caused by the dissociation enzymes normally used for passaging. […] To develop a compatible passaging process, the inventors investigated several integrin antagonists.

The next experiment relates to HES2 cells. The experiment in a line: Clonal proliferation assay, HES2 cells in MEF-CM. To be noted: for effect on hESC survival, self-renewal and differentiation: supplement in MEF-CM, colony morphology. The protocol: The clonal proliferation assay was described previously. Briefly, the hES cells in feeder-free culture were dissociated completely with 0.05% trypsin-EDTA.(Invitrogen), and are seeded at 10^4 cells/well in Matrigel-coated 6-well culture plates and cultured in MEF-conditioned medium. Various concentration of Wnt3a (purified in our laboratory or purchased from Peprotech), IQ-1, ID-8 and/or ICG-001 (all three chemicals were synthesized in our laboratory), were supplemented into the culture media at the onset of seeding, then continuously until the end of culturing. For all assays, the cell and colony morphology were examined under microscope, and the replating efficiency was examined by counting the number of colonies after 7 days of culture.
For quantitative PCR analysis, total RNA was isolated from hESCs cultured in feeder-free condition with or without Wnt3a and Id-8 using RNeasy micro kit (Qiagen). RT was performed with Omniscript (Qiagen) and quantitative RT-PCR was then performed, using each gene-specific primer/probe mix (TaqMan Gene Expression Assays), TaqMan 2× Master Mix, and ABI PRISM 7900 Sequence Detection system (Applied Biosystems, CA) according manufacture's protocol. The PCR data was analyzed by delta/delta OT method and normalized with PPIA expression.
The hESC colonies were fixed with 4% paraformaldehyde, and alkaline phosphatase (ALP) activity was determined with a Vector Blue Alkaline Phosphatase Substrate Kit (Vector Laboratories, CA). Immunostaining was carried out with the following primary antibodies: TRA-1-60 and TRA-1-80 (Santa Cruz Biotechnology, CA), anti-stage specific embryonic antigen (SSEA)-3 and -4 (Developmental Studies Hybridoma Bank at the University of Iowa), anti-OCT-3 (clone C-10, Santa Cruz Biotechnology, CA), or goat anti-Nanog (R&D systems, MN). Then, samples were incubated with Alexa Fluor 488- or 594-conjugated (Molecular Probes, NY), then detected with indirect immunofluorscence microscopy.
The effects of canonical Wnt ligand, Wnt3a and several small molecule Wnt signaling modulators in a clonal proliferation assay were investigated first (9) (FIG. 3A). When HES2 cells (2) were dissociated into single cells and seeded on Matrigel-coated plates in mouse embryonic fibroblast-conditioned medium (MEF-CM)(20), the colony forming efficiency was ˜0.6% (replating efficiency: colony number/seeded cell number). Supplementation with Wnt3a enhanced colony formation (˜1% at 100 ng/ml). The colonies were larger and consisted of more cells. […] ID-8, which was identified in the same screen as IQ-1 (21), also enhances the β-catenin/CBP association and increased hESC survival (˜1.1% at 0.5 μM). […] To examine the scope of this effect in hESC, clonal proliferation assays were performed with the additional hESC lines, HES3 (2) and H9 (1) (FIG. 3H).

In experiment [2] the test system is hESC. Description: Passaging by integrin antagonists (colony detachment). To be noted: xeno-free medium, FLV-coated dishes. On the procedure: as §1, §2

Results on seven molecules are retold here after patent US20110039333A1, “DEFINED CONDITIONS FOR HUMAN EMBRYONIC STEM CELL CULTURE AND PASSAGE” (UNIVERSITY OF SOUTHERN CALIFORNIA, priority 2009, published 2011).

For `Cc1c[nH]c(-c2cnc(NCCNc3ccc(C#N)cn3)nc2-c2ccc(Cl)cc2Cl)n1` [CHIR90021], the “maintenance of hESCs, Wnt ligand replaced by GSK-3 inhibitor” value in the experiment with hESC [1] (0.2 μM plus bFGF) is “could maintain hESCs”.

Consider `CC(=O)c1ccc(NN=C(C(N)=O)C2=NC(C)(C)Cc3ccccc32)cc1` [IQ-1], for which, in the experiment on HES2 cells (in presence of Wnt3a, MEF-CM), the “effect on Wnt-induced differentiation” value is “somewhat prevented Wnt-induced differentiation”. In addition, in the experiment on HES2 cells, the “effect on hESC survival, self-renewal and differentiation” value is “did not significantly affect hESC self-renewal by itself”.

In the case of “bFGF: basic fibroblast growth factor, recombinant FGF2 (Peprotech)”, in the experiment with hESC [1] (bFGF removed from minimal medium), the “hESC morphology and proliferation” value is listed as “proliferation was significantly diminished”.

As to Echistatin, the “colony detachment and passage of hESC” value with hESC [2] is reported as “effectively caused colony detachment”.

Turning to `O=C1[C@H](Cc2ccc(O)cc2)N2C(=O)CCN(C(=O)NCc3ccccc3)[C@H]2CN1Cc1cccc2ccccc12` [ICG-001], the “effect on hESC survival, self-renewal and differentiation” value with HES2 cells was “strongly induced cell differentiation and death”.

For `O=C1Cc2c([nH]c3ccc(Br)cc23)-c2ccccc2N1` [Kenpaullone], the “maintenance of hESCs, Wnt ligand replaced by GSK-3 inhibitor” value in the experiment with hESC [1] (0.5 μM plus bFGF), in the experiment on hESC [1] (1.0 μM plus bFGF) and in the experiment on hESC [1] (1.0 μM without bFGF) was “could maintain hESCs” in each case.

B1: Wnt3a: canonical Wnt ligand protein, purified in the laboratory or purchased from Peprotech (protein, UniProt P56704 19-352, looked up)
Protein Wnt-3a: SYPIWWSLAVGPQYSSLGSQPILCASIPGLVPKQLRFCRNYVEIMPSVAEGIKIGIQECQHQFRGRRWNCTTVHDSLAIFGPVLDKATRESAFVHAIASAGVAFAVTRSCAEGTAAICGCSSRHQGSPGKGWKWGGCSEDIEFGGMVSREFADARENRPDARSAMNRHNNEAGRQAIASHMHLKCKCHGLSGSCEVKTCWWSQPDFRAIGDFLKDKYDSASEMVVEKHRESRGWVETLRPRYTYFKVPTERDLVYYEASPNFCEPNPETGSFGTRDRTCNVSSHGIDGCDLLCCGRGHNARAERRREKCRCVFHWCCYVSCQECTRVYDVHTCK
Regarding B1, the “replating efficiency (colony number/seeded cell number)” value in the experiment on HES2 cells (Wnt3a at 100 ng/ml, single cells on Matrigel in MEF-CM, control ~0.6%) was around 1%. In the experiment on HES2 cells, the “effect on hESC survival, self-renewal and differentiation” value was “enhances hESC survival and proliferation but also induces differentiation”.
